Columns and labels:
[1] = in ethanol, reported value; cited from earlier work
[2] = system: cardiac inflammation produced by doxorubicin; conditions: 5 mg/kg i.v. once daily for 4 weeks, rats; cited from earlier work
[3] = target: T1, human vanilloid receptor type 1 (VR1) (Homo sapiens, UniProt Q8NER1); conditions: HEK-hVR1 transfected cells; cited from earlier work
T1 construct: expressed in transfected cells; host or cells: HEK cells transfected with hVR1 (HEK-hVR1)

[4] = Solubility of CBD in solvents (weight to weight); assay type: physicochemical
Procedure: First, the solubility of cannabidiol (CBD) was assessed. The powder looked granulated under the microscope. […] The conclusions from the solubility studies were that OA and IPA were very good solvents and it was surprising that IPA was so much better than ethanol.
Solubility studies: CBD dissolved at the 10% level in AE and barely 9.5% in IPM. Further exploration was not conducted due to the small amount of drug API available for non-GMP work. CBD is soluble greater than 10% but probably not in excess of 20%, as the time to dissolve additional CBD was taking considerably longer.

[5] = Solubility of CBD in the Franz cell Receptor Fluid; assay type: physicochemical; conditions: aqueous with cosolvent or surfactant or cyclodextrin; PBS, 0.01 wt % NaN3, 4 wt % hydroxypropyl-β-cyclodextrin, 1 wt % Brij O20
[6] = system: ovalbumin-induced airway obstruction; conditions: 1 mg/kg i.v., sensitized guinea-pigs; cited from earlier work
[7] = system: anandamide; conditions: rat basophilic leukemia cells; cited from earlier work
[8] = Discoloration of CBD solutions and formulations on standing; assay type: physicochemical; conditions: end of day
Description: The CBD2 material dissolved like the CBD1 therefore the CBD2 is CBD without the discoloration properties of CBD1.

T1 sequence (Q8NER1 whole entry): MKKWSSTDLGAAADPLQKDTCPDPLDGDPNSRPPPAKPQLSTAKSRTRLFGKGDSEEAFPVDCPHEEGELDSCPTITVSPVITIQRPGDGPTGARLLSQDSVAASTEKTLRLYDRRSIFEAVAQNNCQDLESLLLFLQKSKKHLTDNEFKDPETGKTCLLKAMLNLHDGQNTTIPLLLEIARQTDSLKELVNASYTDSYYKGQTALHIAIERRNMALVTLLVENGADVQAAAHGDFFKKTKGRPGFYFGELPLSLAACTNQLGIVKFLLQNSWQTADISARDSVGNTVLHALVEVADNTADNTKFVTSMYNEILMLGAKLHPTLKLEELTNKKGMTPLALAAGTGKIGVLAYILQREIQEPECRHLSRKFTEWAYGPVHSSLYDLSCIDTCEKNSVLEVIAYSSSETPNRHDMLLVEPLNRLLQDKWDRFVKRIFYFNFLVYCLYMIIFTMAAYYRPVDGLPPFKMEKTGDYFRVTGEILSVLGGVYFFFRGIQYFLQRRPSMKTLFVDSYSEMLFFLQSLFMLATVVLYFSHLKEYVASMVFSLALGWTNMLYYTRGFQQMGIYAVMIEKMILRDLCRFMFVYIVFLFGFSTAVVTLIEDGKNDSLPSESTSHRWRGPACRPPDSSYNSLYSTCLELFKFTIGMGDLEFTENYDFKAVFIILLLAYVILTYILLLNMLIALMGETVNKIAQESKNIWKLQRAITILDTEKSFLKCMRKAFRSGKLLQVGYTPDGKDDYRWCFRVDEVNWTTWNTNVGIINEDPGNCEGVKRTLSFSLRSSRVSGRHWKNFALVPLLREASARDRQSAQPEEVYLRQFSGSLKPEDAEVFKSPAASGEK

Row | Structure (SMILES) | reported solubility of CBD [1] | effect on cardiac inflammation produced by doxorubicin [2] | stimulation of VR1 [3] | solubility (weight to weight) of CBD ([4]; in ethanol) | solubility (weight to weight) of CBD ([4]; in hexamethyldisiloxane (HDS)) | solubility (weight to weight) of CBD ([4]; in isopropyl alcohol (IPA)) | solubility of CBD ([4]; in isopropyl myristate (IPM)) | solubility (weight to weight) of CBD ([4]; in mineral oil) | solubility (weight to weight) of CBD ([4]; in oleyl alcohol (OA), did not go higher in studies) | solubility (weight to weight) of CBD ([4]; in propylene glycol (PG)) | solubility [5] | effect on ovalbumin-induced airway obstruction [6] | inhibition of anandamide [7] | discoloration of solution [8]
1 | C=C(C)C1CCC(C)=CC1c1c(O)cc(CCCCC)cc1O (stereo not drawn) [CBD, 2-[3-methyl-6-(1-methylethenyl)-2-cyclohexen-1-yl]-5-pentyl-1,3-benzenediol] | 3.5% | attenuated cardiac inflammation | maximum effect similar in efficacy to that of capsaicin | 6-7% | 3-4% | greater than 14% | ~9.5% | 3-4% | greater than 8% | 6-7% | > 50 µg/mL | attenuated ovalbumin-induced airway obstruction | inhibit anandamide | –
2 | C=C(C)[C@@H]1CCC(C)=C[C@H]1c1c(O)cc(CCCCC)cc1O [CBD2] | – | – | – | – | – | – | – | – | – | – | – | – | – | None of the CBD2 solutions were colored at the end of day 1
3 | C=C(C)[C@@H]1CCC(C)=C[C@H]1c1c(O)cc(CCCCC)cc1O [CBD1] | – | – | – | – | – | – | – | – | – | – | – | – | – | colored by the end of the day

From US20210401768A1, “FORMULATIONS OF CANNABINOIDS FOR THE TREATMENT OF DERMATITIS AND INFLAMMATORY SKIN DISEASES” (Botanix Pharmaceuticals Ltd., priority 2017, published 2021)
